# Like-named read-outs stand apart in the source and are kept apart here.
# Legend:
# HT-29 = test: cells; type: cell-based; conditions: for IC50: read-out: Basal_Viability ATP HT-29 summarized IC50
# [1] = system: endothelial tube formation in co-cultures of ECFCs and ADSCs treated with VEGF; test: cells; type: cell-based, human; conditions: for IC50: read-out: VEGF_ADSC\ECFC Angio CD31 TubeArea summarized IC50
# [2] = system: HCT116 cells treated with a GSK3β inhibitor; test: cells; type: cell-based; conditions: for IC50: read-out: GSK3b inh pretreated_Viability ATP HCT116 summarized IC50
# HCT116 = test: cells; type: cell-based; conditions: for IC50: read-out: Basal_Viability ATP HCT116 summarized IC50
# SW480 = test: cells; type: cell-based; conditions: for IC50: read-out: Basal_Viability ATP SW480 summarized IC50
# [3] = system: ECFC/ADSC co-culture cell nuclei number; conditions: for IC50: read-out: VEGF_ADSC\ECFC Angio Hoechst NucArea summarized IC50
# SNU-C1 = test: cells; type: cell-based; conditions: for IC50: read-out: Basal_Viability ATP SNU-C1 summarized IC50
# DLD-1 = test: cells; type: cell-based; conditions: for IC50: read-out: Basal_Viability ATP DLD-1 summarized IC50
# RKO = test: cells; type: cell-based; conditions: for IC50: read-out: Basal_Viability ATP RKO summarized IC50
# Colo320 = test: cells; type: cell-based; conditions: for IC50: read-out: Basal_Viability ATP Colo 320 summarized IC50
# [4] = assay number 28, concentration response
# [5] = assay number 26, GSK3b inhibitor pretreated, concentration response
# [6] = assay number 25, basal, concentration response
# [7] = assay number 24, concentration response
# [8] = assay number 30, concentration response
# [9] = assay number 23, concentration response
# [10] = assay number 29, concentration response
# [11] = assay number 27, concentration response
# [12] = assay number 26, GSK3b inhibitor pretreated
Compound,VEGF_ADSC\ECFC Angio CD31 TubeArea IC50/EC50 [1] [µM],VEGF_ADSC\ECFC Angio Hoechst NucArea IC50/EC50 [3] [µM],IC50 [1] [µM],IC50 [3] [µM],"IC50 (HT-29; assay number 28, basal) [µM]","IC50 [2, 12] [µM]","IC50 (HCT116; assay number 25, basal) [µM]","IC50 (SW480; assay number 24, basal) [µM]","IC50 (SNU-C1; assay number 30, basal) [µM]","IC50 (DLD-1; assay number 23, basal) [µM]","IC50 (RKO; assay number 29, basal) [µM]","IC50 (Colo320; assay number 27, basal) [µM]",other results
O=C([O-])CCC(=O)OC[C@@H](NC(=O)C(Cl)Cl)[C@H](O)c1ccc([N+](=O)[O-])cc1.[Na+] [NCGC00094619-06],> 10,> 10,–,–,–,–,–,–,–,–,–,–,"Basal_Viability ATP HT-29 IC50/EC50 (HT-29; [4]): > 20 µM; GSK3b inh pretreated_Viability ATP HCT116 IC50/EC50 [2, 5]: > 20 µM; Basal_Viability ATP HCT116 IC50/EC50 (HCT116; [6]): > 20 µM; Basal_Viability ATP SW480 IC50/EC50 (SW480; [7]): > 20 µM; Basal_Viability ATP SNU-C1 IC50/EC50 (SNU-C1; [8]): > 20 µM; Basal_Viability ATP DLD-1 IC50/EC50 (DLD-1; [9]): > 20 µM; Basal_Viability ATP RKO IC50/EC50 (RKO; [10]): > 20 µM; Basal_Viability ATP Colo 320 IC50/EC50 (Colo320; [11]): > 20 µM"
Oc1c(Br)cc(Br)c2cccnc12 [NCGC00094815-05],–,–,> 10,> 10,–,–,–,–,–,–,–,–,IC50 (HT-29): 5.25 µM; IC50 [2]: 0.183 µM; IC50 (HCT116): 0.193 µM; IC50 (SW480): 0.132 µM; IC50 (SNU-C1): 0.366 µM; IC50 (DLD-1): 0.157 µM; IC50 (RKO): 0.163 µM; IC50 (Colo320): 0.114 µM
Nc1c2ccccc2nc2ccccc12 [NCGC00094857-05],–,–,> 10,> 10,> 20,3.87,2.02,> 20,> 6.67,> 20,> 6.67,8.81,–
CCCCCCCCCCCCCCCC(=O)OC/C=C(C)/C=C/C=C(C)/C=C/C1=C(C)CCCC1(C)C [NCGC00095056-04],–,–,> 10,> 10,> 20,> 20,> 20,> 20,> 20,> 20,> 20,> 20,–
O=C(OCCO)c1ccccc1O [NCGC00159379-04],> 10,> 10,–,–,–,–,–,–,–,–,–,–,"Basal_Viability ATP HT-29 IC50/EC50 (HT-29; [4]): > 20 µM; GSK3b inh pretreated_Viability ATP HCT116 IC50/EC50 [2, 5]: > 20 µM; Basal_Viability ATP HCT116 IC50/EC50 (HCT116; [6]): > 20 µM; Basal_Viability ATP SW480 IC50/EC50 (SW480; [7]): > 20 µM; Basal_Viability ATP SNU-C1 IC50/EC50 (SNU-C1; [8]): > 20 µM; Basal_Viability ATP DLD-1 IC50/EC50 (DLD-1; [9]): > 20 µM; Basal_Viability ATP RKO IC50/EC50 (RKO; [10]): > 20 µM; Basal_Viability ATP Colo 320 IC50/EC50 (Colo320; [11]): > 20 µM"
CC(=O)NC(=O)c1ccccc1O [NCGC00160362-02],–,–,> 10,> 10,> 20,> 20,> 20,> 20,> 20,> 20,> 20,> 20,–
CCCCN1CCCC1C(=O)Nc1c(C)cc(C)cc1C (stereo not shown) [NCGC00160363-03],> 10,> 10,–,–,–,–,–,–,–,–,–,–,"Basal_Viability ATP HT-29 IC50/EC50 (HT-29; assay number 28, basal): > 20 µM; GSK3b inh pretreated_Viability ATP HCT116 IC50/EC50 [2, 12]: > 20 µM; Basal_Viability ATP HCT116 IC50/EC50 (HCT116; assay number 25, basal): > 20 µM; Basal_Viability ATP SW480 IC50/EC50 (SW480; assay number 24, basal): > 20 µM; Basal_Viability ATP SNU-C1 IC50/EC50 (SNU-C1; assay number 30, basal): > 20 µM; Basal_Viability ATP DLD-1 IC50/EC50 (DLD-1; assay number 23, basal): > 20 µM; Basal_Viability ATP RKO IC50/EC50 (RKO; assay number 29, basal): > 20 µM; Basal_Viability ATP Colo 320 IC50/EC50 (Colo320; assay number 27, basal): > 20 µM"

# Source: paper PMC4503722, “Novel Phenotypic Outcomes Identified for a Public Collection of Approved Drugs from a Publicly Accessible Panel of Assays” (PLoS ONE, 2015)
